Test system: BCR-ABL
Test: effect of the buffer surfactant on BCR-ABL kinase activity in the in vitro kinase radio assay
Assay type: biochemical
Conditions: 0.1% in all buffers
Procedure: Off-Chip And On-Chip In Vitro Kinase Radio Assays were performed for comparison. In vitro kinase assays were performed using established protocols for bead-based immunoaffinity capture of a specific kinase followed by kinase reactions in the presence of a kinase-specific peptide substrate and ^32P labeled ATP. The microfluidic on-chip assay was developed using reagents that were compatible and efficient in the context of microfluidic channels and valves. For the microfluidic assay, 0.1% n-dodecyl-beta-D-maltoside (DDM) was added to all buffers to prevent bead clumping (indicated by /DDM in the buffer name). […] For BCR-ABL kinase immunocapture, the off-chip assay used agarose protein NG beads (40-160 μm; Pierce, Rockford, Ill.) and the on-chip assay used smaller and more sturdy Protein G polystyrene beads (6.7 μm; Spherotech Inc., Lake Forest, Calif.). The large average size and fragility of the agarose beads precluded their use on-chip, and the small size of the polystyrene beads made them impractical for the pipeting-based off-chip assay. Both bead types were coated with anti-c-ABL antibody (OP20, EMD Chemicals).

## CCCCCCCCCCCCO[C@@H]1O[C@H](CO)[C@@H](O[C@H]2O[C@H](CO)[C@@H](O)[C@H](O)[C@H]2O)[C@H](O)[C@H]1O [DDM, n-dodecyl-beta-D-maltoside]
  effect on BCR-ABL kinase activity: no detectable effect

Source: US20130244257A1, “INTEGRATED MICROFLUIDIC RADIOASSAY AND IMAGING PLATFORM FOR SMALL SAMPLE ANALYSIS” (THE REGENTS OF THE UNIVERSITY OF CALIFORNIA, priority 2010, published 2013)
